One data set relates to GTOV-p. The data set is described as follows: organism not typed. In kind it is cell-based, Guanarito (GTOV). To be noted: Vero, read-out: GTOV-p EC50.
For data set [1] the following is noted: 1 h, pH 7.4.
A further data set can be described thus: in vitro. To be noted: African green monkey.
For data set [2] the following is noted: 1 h, pH 7.4. The source holds these as a separate data set.
Data set [3] has as its system replicative LASV. Nature of the data set: microbe, parasite or virus in culture. To be noted: Mammarenavirus lassaense. In kind it is cell-based, Lassa Virus.
The conditions of data set [4]: 1 h, pH 7.4. This is another data set of the same source.
The subject of another data set is MACV-p. Nature of the data set: organism not typed. Format: cell-based, Machupo (MACV). The conditions noted are these: Vero, read-out: MACV-p EC50.
The test system of a further data set is LASV-p. The data set is described as follows: microbe, parasite or virus in culture. Format: cell-based, Lassa (LASV). The conditions noted are these: Vesicular stomatitis virus, Vero, read-out: LASV-p EC50.
The next data set concerns VSV-p. The data set is described as follows: microbe, parasite or virus in culture. In kind it is cell-based. To be noted: Vesicular stomatitis virus, Vero, read-out: VSV-p EC50.
The conditions of data set [5]: guinea pig, 1 h, pH 7.4.
For data set [6] the following is noted: 1 h, pH 7.4. The source holds these as a separate data set.
Data set [7] deals with native replicating Tacaribe (TCRV) virus. The data set is described as follows: microbe, parasite or virus in culture. In kind it is cell-based. To be noted: Mammarenavirus tacaribeense, Vero, 120 h, read-out: TCRV EC50.
The conditions of data set [8]: 1 h, pH 7.4. The source holds these as a separate data set.
The subject of data set [9] is replicative LASV. Nature of the data set: microbe, parasite or virus in culture. The conditions noted are these: for EC90: Mammarenavirus lassaense. In kind it is cell-based, Lassa Virus.
A further data set deals with TCRV-p. The data set is described as follows: organism not typed. Format: cell-based. To be noted: read-out: TCRV-p EC50.
The test system of the next data set is JUNV-p. Nature of the data set: organism not typed. In kind it is cell-based, Junin (JUNV). The conditions noted are these: Vero, read-out: JUNV-p EC50.
Another data set addresses hERG channel (Homo sapiens, UniProt Q12809). The conditions noted are these: pH 7.4.
Another data set can be described thus: in vivo. To be noted: mouse.
The conditions of data set [10]: mouse, in vivo, 30 mg/kg.
For data set [11] the following is noted: mouse, in vivo, po.
Where [12] appears, read: read-out: EC50 in the plaque assay format.
The mark [13] stands for this setting: read-out: EC90 in the VYR assay format.

Here are results for eight compounds from patent US12419865B2 (priority 2018, dated 2025).

Where two headings read alike, the source gives them in different places.

As usually defined, the EC50 is the concentration giving half of the maximal effect. For orientation: EC90 means the point of the concentration-response curve where the effect stands at 90%. As usually defined, the % Inhibition is the relative decrease from the control value, in per cent. By Vd is commonly meant a proportionality between amount in the body and measured concentration, not a real space. For orientation: clearance means a measure of how efficiently the substance is removed, as volume per time. Broadly, the AUC(0-t) is exposure summed from dosing to a finite time, without extrapolation to infinity. As usually defined, the bioavailability is dose-corrected exposure relative to a reference, in per cent.

hERG channel, sequence (Q12809 whole entry): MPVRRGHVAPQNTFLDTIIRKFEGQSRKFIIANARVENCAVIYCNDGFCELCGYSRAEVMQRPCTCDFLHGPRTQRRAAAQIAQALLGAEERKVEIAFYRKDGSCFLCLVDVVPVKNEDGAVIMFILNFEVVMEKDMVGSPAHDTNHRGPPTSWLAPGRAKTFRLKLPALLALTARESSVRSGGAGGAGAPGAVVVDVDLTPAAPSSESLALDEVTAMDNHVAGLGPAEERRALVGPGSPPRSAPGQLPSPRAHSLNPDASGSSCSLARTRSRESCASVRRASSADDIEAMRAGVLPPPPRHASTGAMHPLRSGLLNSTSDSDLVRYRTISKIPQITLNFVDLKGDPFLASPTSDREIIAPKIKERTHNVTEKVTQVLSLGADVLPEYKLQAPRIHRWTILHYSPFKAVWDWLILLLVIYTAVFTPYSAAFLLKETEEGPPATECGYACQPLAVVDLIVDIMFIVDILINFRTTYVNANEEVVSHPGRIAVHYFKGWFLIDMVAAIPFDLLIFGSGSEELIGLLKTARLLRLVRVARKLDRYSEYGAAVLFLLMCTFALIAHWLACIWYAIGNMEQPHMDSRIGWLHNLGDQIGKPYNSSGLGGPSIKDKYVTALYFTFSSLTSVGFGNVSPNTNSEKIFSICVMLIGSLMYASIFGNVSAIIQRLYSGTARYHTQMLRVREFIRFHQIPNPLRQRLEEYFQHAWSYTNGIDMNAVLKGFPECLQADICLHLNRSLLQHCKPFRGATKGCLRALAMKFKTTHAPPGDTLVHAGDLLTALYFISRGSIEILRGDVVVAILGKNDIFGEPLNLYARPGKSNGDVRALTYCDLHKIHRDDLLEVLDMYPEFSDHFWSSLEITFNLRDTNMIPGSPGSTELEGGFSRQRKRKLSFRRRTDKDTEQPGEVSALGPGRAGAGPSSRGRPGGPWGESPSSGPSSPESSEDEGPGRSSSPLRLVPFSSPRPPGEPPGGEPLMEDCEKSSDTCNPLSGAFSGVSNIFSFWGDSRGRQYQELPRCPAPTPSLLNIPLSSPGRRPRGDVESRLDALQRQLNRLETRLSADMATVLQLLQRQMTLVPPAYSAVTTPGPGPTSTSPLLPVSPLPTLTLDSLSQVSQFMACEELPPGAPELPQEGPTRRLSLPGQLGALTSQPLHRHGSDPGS

Consider `Cc1cc2ncn(-c3ccc(OC(C)(C)C)cc3)c2cc1-c1ccc(OC(C)C)cc1` [Example A2, 1-(4-(tert-butoxy)phenyl)-6-(4-isopropoxyphenyl)-5-methyl-1H-benzo[d]imidazole], for which the EC50 was 0.05 nM with GTOV-p; 1 to 3 nM in the data set with replicative LASV [3] (setting [12]); less than 3 nM in the data set with replicative LASV [3] (read-out: Plaque Assay EC50); 0.14 nM in the data set with MACV-p; 0.38 nM in the data set on LASV-p; greater than 10000 nM in the data set with VSV-p. The EC50 in data set [7] turned out to be 0.33 nM; with TCRV-p (Vero), 0.15 nM; in the data set with TCRV-p it was 0.12 nM; with JUNV-p it was 0.15 nM. Also, in data set [1], the “Percent parent compound remaining at 60 minutes in liver microsomes, Rat” value is greater than 95%. In the data set “in vitro”, this compound registered a CC50 of 7300 nM. Also, the “Percent parent compound remaining at 60 minutes in liver microsomes, Monkey” value in data set [2] is 53%. In addition, the “Percent parent compound remaining at 60 minutes in liver microsomes, Dog” value in data set [4] is listed as greater than 95%. The “Percent parent compound remaining at 60 minutes in liver microsomes, Guinea” value (from here on “Percent parent compound remaining … Guinea”) in data set [5] is reported as greater than 95%. Further, in data set [6], the “Percent parent compound remaining at 60 minutes in liver microsomes, Mouse” value (“Percent parent compound remaining … Mouse” for short) was determined as 93.9%. Also, the “Percent parent compound remaining at 60 minutes in liver microsomes, Human” value (“Percent parent compound remaining … Human” below) in [8] worked out at 95%. Further, the Sl90 in the data set on replicative LASV [9] is reported as >13,000. Further, the EC90 with replicative LASV [9] (Vero, read-out: VYR Assay EC90) was less than 1 nM; in the data set with replicative LASV [9] (setting [13]), 1 to 3 nM.

As to `Cc1cc2ncc(-c3ccc(OC(C)(C)C)cc3)n2cc1-c1ccc(C(C)(C)O)cc1` [Example B6, 2-(4-(3-(4-(tert-butoxy)phenyl)-7-methylimidazo[1,2-a]pyridin-6-yl)phenyl)propan-2-ol], the EC50 was 0.11 nM in the data set with GTOV-p; 0.13 nM in the data set with MACV-p; 0.7 nM in the data set with LASV-p; greater than 10000 nM in the data set on VSV-p; 0.95 nM in [7]; 0.16 nM with TCRV-p (Vero). Besides, the EC50 worked out at 0.1 nM in the data set with TCRV-p and 0.22 nM in the data set on JUNV-p. The compound also yielded a CC50 in “in vitro” of 4320 nM. For the same compound, in data set [5], the “Percent parent compound remaining … Guinea” value was found to be 61.5%. Besides, in data set [6], the “Percent parent compound remaining … Mouse” value stood at 81.7%. Moreover, the “Percent parent compound remaining … Human” value in [8] is on record as 81.5%.

For `Cc1cc2ncc(-c3ccc(C(C)(C)O)cc3)n2cc1-c1ccc(OC(C)C)cc1` [Example B8, 2-(4-(6-(4-isopropoxyphenyl)-7-methylimidazo[1,2-a]pyridin-3-yl)phenyl)propan-2-ol], the EC50 was 0.94 nM with GTOV-p; 1 to 3 nM with replicative LASV [3] (setting [12]); less than 3 nM in the data set with replicative LASV [3] (read-out: Plaque Assay EC50); 0.61 nM in the data set on MACV-p; 2.91 nM in the data set on LASV-p; greater than 10000 nM in the data set with VSV-p. Besides, the EC50 in data set [7] was found to be 2.16 nM; in the data set on TCRV-p (Vero), 0.32 nM; with TCRV-p, 0.32 nM; with JUNV-p, 0.76 nM. Also, the “Percent parent compound remaining at 60 minutes in liver microsomes, Rat” value in data set [1] was 93%. Further, in the data set “in vitro”, the CC50 came to 27800 nM. For the same compound, the “Percent parent compound remaining at 60 minutes in liver microsomes, Monkey” value in data set [2] was 33.7%. Besides, the “Percent parent compound remaining at 60 minutes in liver microsomes, Dog” value in [4] turned out to be 77.57%. In addition, the “Percent parent compound remaining … Guinea” value in data set [5] is 67.7%. The “Percent parent compound remaining … Mouse” value in data set [6] is reported as 77.5%. Further, the “Percent parent compound remaining … Human” value in data set [8] turned out to be 87.6%. Moreover, the Sl90 with replicative LASV [9] was >9,000. The EC90 in the data set with replicative LASV [9] (Vero, read-out: VYR Assay EC90) was less than 3 nM; with replicative LASV [9] (setting [13]), 1 to 3 nM. The “% Inhibition at 3 uM” value at hERG channel was less than 10%.

As for `Cc1cc2ncc(-c3ccc(OC(C)(C)C)cc3)n2cc1-c1ccc(OC(C)C)cc1` [Example B7, 3-(4-(tert-butoxy)phenyl)-6-(4-isopropoxyphenyl)-7-methylimidazo[1,2-a]pyridine], the EC50 was 0.12 nM with GTOV-p; 1 to 3 nM in the data set with replicative LASV [3] (setting [12]); less than 3 nM in the data set on replicative LASV [3] (read-out: Plaque Assay EC50); 0.42 nM in the data set on MACV-p; 0.9 nM in the data set with LASV-p; greater than 10000 nM with VSV-p. Moreover, the EC50 in data set [7] turned out to be 0.74 nM; with TCRV-p (Vero), 0.16 nM; in the data set on TCRV-p it was 0.2 nM; in the data set on JUNV-p, 0.31 nM. This compound gave a Vd in the data set “in vivo” of 35.7 L/kg. The compound further registered a clearance in “in vivo” of 13.7 mL/min/kg. In “in vivo” (po, 30 mg/kg), this compound showed an AUC(0-t) of 70400 ng·h/mL. Besides, the bioavailability in “in vivo” (po, 30 mg/kg) turned out to be 30%. This compound came in with a CC50 in “in vitro” of 8140 nM. Further, the “Oral C-Max” value in [10] is 5.5 µg/mL. The “Oral T-Max” value in data set [10] came out at 2 h. The Sl90 with replicative LASV [9] is >11,000. In addition, the EC90 in the data set with replicative LASV [9] (Vero, read-out: VYR Assay EC90) was less than 1 nM; with replicative LASV [9] (setting [13]), 1 to 3 nM. Also, the “24 hr liver concentration” value in [11] is on record as 63.4 ug/g liver. In addition, the “24 hr plasma concentration” value in data set [11] is 9.1 µg/mL. For the same compound, the “% Inhibition at 3 uM” value on hERG channel is recorded as less than 10%.

Compound `CC(C)Oc1ccc(-c2cc3c(cc2Cl)nnn3-c2ccc(OC(C)C)cc2)cc1` [Example C11, 5-chloro-1,6-bis(4-isopropoxyphenyl)-1H-benzo[d][1,2,3]triazole] displayed a CC50 in the data set “in vitro” greater than 100000 nM. The half-maximal effective concentration (EC50) in the data set with MACV-p is 0.19 nM; in the data set on LASV-p, 2.29 nM; in the data set with VSV-p it was greater than 10000 nM; in data set [7], 0.84 nM; with TCRV-p (Vero) it was 0.77 nM; in the data set with TCRV-p, 0.61 nM. Besides, the EC50 with JUNV-p was 0.1 nM. For the same compound, the “Percent parent compound remaining … Guinea” value in data set [5] is recorded as greater than 95%. Besides, the “Percent parent compound remaining … Mouse” value in data set [6] is greater than 95%. Further, the “Percent parent compound remaining … Human” value in [8] was greater than 95%. At hERG channel, the “% Inhibition at 3 uM” value is recorded as less than 10%.

As for `CC(C)Oc1ccc(-n2nnc3ccc(-c4ccc(C(C)(C)O)cc4)cc32)cc1` [Example C16, 2-(4-(1-(4-isopropoxyphenyl)-1H-benzo[d][1,2,3]triazol-6-yl)phenyl)propan-2-ol], the CC50 in “in vitro” is 4120 nM. Also, the EC50 in the data set on MACV-p was 1.72 nM; in the data set on LASV-p, 3.02 nM; with VSV-p, greater than 10000 nM; in the data set with TCRV-p (Vero), 3.67 nM; in the data set with JUNV-p it was 0.45 nM. Besides, the “Percent parent compound remaining … Guinea” value in data set [5] came out at 61.9%. The “Percent parent compound remaining … Mouse” value in data set [6] amounted to 57.4%. Also, in data set [8], the “Percent parent compound remaining … Human” value was determined as 72.3%.

As for `Cc1cc2ncn(-c3ccc(OC(C)C)cc3)c2cc1-c1ccc(C(C)(C)O)cc1` [Example A3, 2-(4-(1-(4-isopropoxyphenyl)-5-methyl-1H-benzo[d]imidazol-6-yl)phenyl)propan-2-ol], in “in vitro”, the CC50 amounted to 4500 nM. The half-maximal effective concentration (EC50) in the data set with MACV-p was 0.17 nM; in the data set with LASV-p, 0.75 nM; in the data set on VSV-p it was greater than 10000 nM; in data set [7], 0.87 nM; in the data set on TCRV-p (Vero), 0.24 nM; in the data set with TCRV-p it was 0.21 nM. Moreover, the EC50 in the data set with JUNV-p worked out at 0.4 nM. Further, the “Percent parent compound remaining … Guinea” value in [5] worked out at 67.6%. Also, the “Percent parent compound remaining … Mouse” value in [6] turned out to be 25.4%. In addition, in data set [8], the “Percent parent compound remaining … Human” value is reported as 89.9%.

For `Cc1cc2ncc(-c3ccc(OC(C)C)cc3)n2cc1-c1ccc(C(C)(C)O)cc1` [Example B5, 2-(4-(3-(4-isopropoxyphenyl)-7-methylimidazo[1,2-a]pyridin-6-yl)phenyl)propan-2-ol], the CC50 in “in vitro” was 3870 nM. The EC50 is 0.16 nM with MACV-p; 0.53 nM with LASV-p; greater than 10000 nM in the data set with VSV-p; 0.88 nM in data set [7]; 0.16 nM in the data set with TCRV-p (Vero); 0.1 nM in the data set on TCRV-p. Further, the EC50 in the data set on JUNV-p is 0.18 nM. For the same compound, the “Percent parent compound remaining … Guinea” value in data set [5] is reported as 7.4%. The “Percent parent compound remaining … Mouse” value in data set [6] is on record as 16.4%. The “Percent parent compound remaining … Human” value in data set [8] was 86.7%.
